As usually defined, the IC50 is the midpoint of a concentration-inhibition curve.

24 molecules from patent US8796259B2, “N3-heteroaryl substituted triazoles and N5-heteroaryl substituted triazoles useful as axl inhibitors” (Rigel Pharmaceuticals, Inc., priority 2006, dated 2014) can be followed below.

Some results are limits rather than exact numbers.

This assay deals with T1, Axl (Homo sapiens, UniProt P30530).
T1 construct: endogenous in cells; host or cells: HeLa cells
T1 sequence (P30530 26-894): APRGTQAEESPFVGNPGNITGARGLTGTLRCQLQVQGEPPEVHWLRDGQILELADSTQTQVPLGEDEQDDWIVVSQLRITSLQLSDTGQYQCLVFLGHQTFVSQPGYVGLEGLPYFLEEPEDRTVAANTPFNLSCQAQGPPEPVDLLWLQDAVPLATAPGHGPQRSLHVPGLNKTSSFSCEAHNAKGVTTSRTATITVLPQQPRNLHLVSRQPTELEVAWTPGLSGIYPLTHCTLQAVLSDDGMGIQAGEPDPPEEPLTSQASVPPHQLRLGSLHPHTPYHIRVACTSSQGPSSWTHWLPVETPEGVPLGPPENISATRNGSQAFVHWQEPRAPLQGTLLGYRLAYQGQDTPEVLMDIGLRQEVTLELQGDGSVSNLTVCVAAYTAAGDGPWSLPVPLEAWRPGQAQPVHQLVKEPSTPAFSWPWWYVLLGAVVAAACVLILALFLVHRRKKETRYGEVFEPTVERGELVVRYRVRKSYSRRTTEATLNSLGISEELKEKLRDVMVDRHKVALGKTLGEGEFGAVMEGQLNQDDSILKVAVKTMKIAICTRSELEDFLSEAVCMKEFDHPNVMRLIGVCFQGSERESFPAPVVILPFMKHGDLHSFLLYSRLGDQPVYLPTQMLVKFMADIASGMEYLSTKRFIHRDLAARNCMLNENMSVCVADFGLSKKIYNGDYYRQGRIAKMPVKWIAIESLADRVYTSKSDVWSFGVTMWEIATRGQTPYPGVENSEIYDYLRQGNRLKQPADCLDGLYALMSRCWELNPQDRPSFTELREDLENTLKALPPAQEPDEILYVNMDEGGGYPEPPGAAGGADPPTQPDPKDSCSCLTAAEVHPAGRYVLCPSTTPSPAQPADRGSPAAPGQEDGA
Put plainly: Phospho-Akt in-cell Western assay (inhibition of Axl activity, Axl-antibody cross-linking stimulation). The class given is cell-based. Particulars: Hela cells, phospho-Akt readout. The gist of the method: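 HeLa cells on poly-L-lysine were starved 24 h in 0.5% FCS/DMEM with 500 ng/mL Axl/Fc, pre-treated with compound 1 h at 37 °C, then stimulated 5 min by cross-linked mouse anti-Axl/biotin anti-mouse antibody clusters. After formaldehyde fixation, phospho-Akt was detected by rabbit anti-phospho-Akt and HRP secondary with chemiluminescence read-out.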

Setting [1] is: compounds of formula (Ia), Table 1.

Consider `Cc1csc2c(-n3nc(Nc4ccc(C=CCN5CCCC5)nc4)nc3N)ncnc12` [compound 119, 1-(7-methylthieno [3,2-d]pyrimidin-4-yl)-N^3-(2-(3-(pyrrolidin-1-yl)propen-1-yl)pyridin-5-yl)-1H-1,2,4-triazole-3,5-diamine], for which the concentration for half-maximal inhibition (IC50) under setting [1] was less than 1000 nM.

As for `Cc1csc2c(-n3nc(Nc4ccc(/C=C/CN5CCC(N(C)C)C5)nc4)nc3N)ncnc12` (stereo not drawn) [compound 120, 1-(7-methylthieno [3,2-d]pyrimidin-4-yl)-N^3-(2-(3-(3-dimethyl-amino-pyrrolidin-1-yl)propen-1-yl)pyridin-5-yl)-1H-1,2,4-triazole-3,5-diamine], the concentration for half-maximal inhibition (IC50) under setting [1] is less than 1000 nM.

For the molecule `Cc1csc2c(-n3nc(Nc4cnc5c(c4)CC(NC(=O)CN(C)C)CC5)nc3N)nc(Cl)nc12` (stereo not drawn) [compound 29, 1-(2-chloro-7-methylthieno [3,2-d]pyrimidin-4-yl)-N^3-(6-(2-(dimethyl-amino)-1-oxyethyl-amino)-5,6,7,8-tetrahydro-quinolin-3-yl)-1H-1,2,4-triazole-3,5-diamine], under setting [1], the IC50 was less than 1000 nM.

In the case of `COc1cc2ncnc(-n3nc(Nc4ccc(C=CCN5CCC(N6CCCC6)CC5)nc4)nc3N)c2cc1OC` [compound 81, 1-(6,7-dimethoxy-quinazoline-4-yl)-N^3-(6-(3-(4-pyrrolidin-1-ylpiperidin-1-yl)propenyl)pyridin-3-yl)-1H-1,2,4-triazole-3,5-diamine], the half-inhibitory concentration (IC50) under setting [1] is less than 1000 nM.

For the molecule `Cc1csc2c(-n3nc(Nc4cnc5c(c4)CNCC5)nc3N)nc(Cl)nc12` [compound 25, 1-(2-chloro-7-methylthieno [3,2-d]pyrimidine-4-yl)-N^3-(5,6,7,8-tetrahydro-1,6-naphthyridin-3-yl)-1H-1,2,4-triazole-3,5-diamine], under setting [1], the IC50 is less than 1000 nM.

For `COc1cc2ncnc(-n3nc(Nc4ccc(C=CCN5CCC(N(C)C)CC5)nc4)nc3N)c2cc1OC` [compound 69, 1-(6,7-dimethoxy-quinazoline-4-yl)-N^3-(6-(3-(4-dimethyl-amino-piperidin-1-yl)propenyl)pyridin-3-yl)-1H-1,2,4-triazole-3,5-diamine], the 50% inhibitory concentration (IC50) under setting [1] was less than 1000 nM.

Under setting [1], `Cc1cc(Nc2nc(N)n(-c3nc(Cl)nc4c(C)csc34)n2)cnc1N1CCN(CC2CC2)CC1` [compound 95, 1-(2-chloro-7-methylthieno [3,2-d]pyrimidin-4-yl)-N^3-(6-(4-(cyclopropyl-methyl)piperazin-1-yl)-5-methyl-pyridin-3-yl)-1H-1,2,4-triazole-3,5-diamine] had a concentration for half-maximal inhibition (IC50) of less than 1000 nM.

In turn, `Nc1nc(Nc2ccc3oc(CN4CCCC4)nc3c2)nn1-c1nccc2ccccc12` [compound 1, 1-(isoquinolin-1-yl)-N^3-(2-(pyrrolidin-1-ylmethyl)benzo [d]oxazol-5-yl)-1H-1,2,4-triazole-3,5-diamine] returned an IC50 under setting [1] of 1000 to 10000 nM.

Turning to `COc1cc2ncnc(-n3nc(Nc4ccc(Br)nc4)nc3NC(=NC#N)Nc3ccc(Br)nc3)c2cc1OC` [compound 58, 1-(6,7-dimethoxy-quinazoline-4-yl)-N^3-(6-bromopyridin-3-yl)-5-(3-(6-bromopyridin-3-yl)-2-cyano-guanadino)-1H-1,2,4-triazole-3-amine], the IC50 under setting [1] fell in the range of 1000 to 10000 nM.

As for `Cc1csc2c(-n3nc(Nc4ccc(C5CCN(C6CC7CCC6C7)CC5)nc4)nc3N)ncnc12` (stereo not drawn) [compound 88, 1-(7-methylthieno [3,2-d]pyrimidine-4-yl)-N^3-(6-(1-bicyclo [2.2.1]heptan-2-ylpiperidin-4-yl)pyridine-3-yl)-1H-1,2,4-triazole-3,5-diamine], the half-maximal inhibitory concentration (IC50) under setting [1] is less than 1000 nM.

As to `Cc1cc(Nc2nc(N)n(-c3ncnc4c(C)csc34)n2)cnc1N1CCN([C@H]2CC3CCC2C3)CC1` (stereo partly drawn) [compound 111, 1-(7-methylthieno [3,2-d]pyrimidin-4-yl)-N^3-(2-(4-(2S)-bicyclo[2.2.1]heptan-2-ylpiperazin-1-yl)-3-methylpyridin-5-yl)-1H-1,2,4-triazole-3,5-diamine], the IC50 under setting [1] is less than 1000 nM.

`COc1cc2ncnc(-n3nc(Nc4ccc(C=CCN5CCC(N6CCN(C)CC6)CC5)nc4)nc3N)c2cc1OC` [compound 65, 1-(6,7-dimethoxy-quinazoline-4-yl)-N^3-(6-(3-(4-(4-methyl-piperazin-1-yl)piperidin-1-yl)propenyl)pyridin-3-yl)-1H-1,2,4-triazole-3,5-diamine] came in with an IC50 under setting [1] of less than 1000 nM.

The molecule `Cc1cc(Nc2nc(N)nn2-c2nnc(C)c3ccsc23)cnc1N1CCN([C@H]2C[C@@H]3CC[C@H]2C3)CC1` [compound 132, 1-(4-methylthieno[2,3-d]pyridazin-7-yl)-N^5-(2-(4-(1S,2S,4R)-bicyclo[2.2.1]heptan-2-ylpiperazin-1-yl)-3-methylpyridin-5-yl)-1H-1,2,4-triazole-3,5-diamine] returned an IC50 (compounds of formula (Ib), Table 2) of more than 20000 nM.

In the case of `COc1cc2ncnc(-n3nc(Nc4cnc5c(c4)CCN(C4CCCC4)CC5)nc3N)c2cc1OC` [compound 13, 1-(6,7-dimethoxy-quinazoline-4-yl)-N^3-(7-cyclopentyl-6,7,8,9-tetrahydro-5H-pyrido[3,2-d]azepin-3-yl)-1H-1,2,4-triazole-3,5-diamine], the IC50 under setting [1] is less than 1000 nM.

With `Cc1csc2c(-n3nc(Nc4ccc(C=CCN5CCN(C)CC5)nc4)nc3N)ncnc12` [compound 123, 1-(7-methylthieno [3,2-d]pyrimidin-4-yl)-N^3-(2-(3-(4-methyl-piperazin-1-yl)propen-1-yl)pyridin-5-yl)-1H-1,2,4-triazole-3,5-diamine], the IC50 under setting [1] is less than 1000 nM.

Under setting [1], `Cc1csc2c(-n3nc(Nc4ccc(N5CCN(CC6CC6)[C@@H](C)C5)nc4)nc3N)nc(Cl)nc12` [compound 115, 1-(2-chloro-7-methyithieno [3,2-d]pyrimidin-4-yl)-N^3-(2-(4-cyclopropyl-methyl-3-(S)-methyl-piperazin-1-yl)pyridin-5-yl)-1H-1,2,4-triazole-3,5-diamine] had a half-maximal inhibitory concentration (IC50) of 1000 to 10000 nM.

Under setting [1], `Cc1cc(Nc2nc(N)n(-c3ncnc4c(C)csc34)n2)cnc1N1CCN([C@H]2C[C@@H]3CC[C@H]2C3)[C@@H](C)C1` [compound 106, 1-(7-methylthieno [3,2-d]pyrimidin-4-yl)-N^3-(2-(3-(S)-methyl-4-(1S,2S,4R)-bicyclo[2.2.1]heptan-2-ylpiperazin-1-yl)-3-methylpyridin-5-yl)-1H-1,2,4-triazole-3,5-diamine] yielded an IC50 of less than 1000 nM.

`Cc1csc2c(-n3nc(Nc4cnc(N5CCC(N6CCCC6)CC5)nc4)nc3N)nc(Cl)nc12` [compound 91, 1-(2-chloro-7-methylthieno [3,2-d]pyrimidin-4-yl)-N^3-(2-(4-pyrrolidin-1ylpiperidin-1-yl)pyrimidin-5-yl)-1H-1,2,4-triazole-3,5-diamine]: the IC50 under setting [1] is less than 1000 nM.

`Cc1csc2c(-n3nc(Nc4cnc5c(c4)CN(C)CC5)nc3N)nc(Cl)nc12` [compound 14, 1-(2-chloro-7-methylthieno [3,2-d]pyrimidine-4-yl)-N^3-(6-methyl-5,6,7,8-tetrahydro-1,6-naphthyridin-3-yl)-1H-1,2,4-triazole-3,5-diamine]: the half-maximal inhibitory concentration (IC50) under setting [1] is more than 20000 nM.

`Cc1csc2c(-n3nc(Nc4ccc(C=CCN5CCOCC5)nc4)nc3N)ncnc12` [compound 126, 1-(7-methylthieno [3,2-d]pyrimidin-4-yl)-N^3-(2-(3-(morpholin-4-yl)propen-1-yl)pyridin-5-yl)-1H-1,2,4-triazole-3,5-diamine]: the IC50 under setting [1] was less than 1000 nM.

In the case of `COc1cc2ncnc(-n3nc(Nc4ccc(C=CCN5CCC(N6CCCCC6)CC5)nc4)nc3N)c2cc1OC` [compound 67, 1-(6,7-dimethoxy-quinazoline-4-yl)-N^3-(6-(3-(4-piperidin-1-ylpiperidin-1-yl)propenyl)pyridin-3-yl)-1H-1,2,4-triazole-3,5-diamine], under setting [1], the IC50 is less than 1000 nM.

As for `CCN(CC)C1CCN(c2ccc(Nc3nc(N)n(-c4nc(Cl)nc5c(C)csc45)n3)cn2)C1` (stereo not drawn) [compound 44, 1-(2-chloro-7-methylthieno [3,2-d]pyrimidin-4-yl)-N^3-(6-(3-diethylamino-pyrrolidin-1-yl)pyridin-3-yl)-1H-1,2,4-triazole-3,5-diamine], the IC50 under setting [1] is less than 1000 nM.

Regarding `Cc1csc2c(-n3nc(Nc4ccc(C=CCN5CCC(N6CCCC6)CC5)nc4)nc3N)ncnc12` [compound 122, 1-(7-methylthieno [3,2-d]pyrimidin-4-yl)-N^3-(2-(3-(4-pyrrolidin-1-yl-piperidin-1-yl)propen-1-yl)pyridin-5-yl)-1H-1,2,4-triazole-3,5-diamine], under setting [1], the IC50 is less than 1000 nM.

`Cc1cc(Nc2nc(N)n(-c3ncnc4sc5c(c34)CCC5)n2)cnc1N1CCC(N2CCCC2)CC1` [compound 54, 1-(6,7-dihydro-5H-cyclopenta [4,5]thieno[2,3-d]pyrimidin-4-yl)-N^3-(6-(4-(pyrrolidin-1-yl)piperidin-1-yl)-5-methyl-pyridin-3-yl)-1H-1,2,4-triazole-3,5-diamine] came in with an IC50 under setting [1] of less than 1000 nM.
